# Structures can show the parent of a compound that is named as a salt. Where two headings read alike, the source gives them in different places.
# Key:
# rat smooth muscle cells = assay: Antiproliferative activity (ri, relative to heparin) in rat smooth muscle cells; assay type: cell-based; design: key: growth inhibition relative to heparin at 100 μg/ml, same experiment; details: 100 μg/ml, 48 h, relative to heparin at 100 μg/ml in the same experiment
# Experimental: Antiproliferative Activity
# The antiproliferative activity of a substance is expressed as the ri value which is a comparative value to the corresponding activity of heparin and which was determined in cell cultures as follows: rat smooth muscle cells were applied to cell culture plates in a density of 8×10^3 cells/well (medium: DMEM with 10% FCS. Cultivation at 37° C. and 5% CO2). After 4 hours, the number of adhered cells was determined and the substances to be tested (100 μg/ml, dissolved in H2 O) were added. […] Subsequently, the cells were incubated for 48 h. and thereafter the cell count was determined once more.
# The inhibition i of the cell growth, that is, the reduction in the growth rate of the cells in percent compared to the control, was calculated from these values. [formula] the growth rate μbeing calculated as [formula] in which Z is the number of cells and d is the time in days.
# Finally, ri --the relative inhibitory activity--which expresses the activity of a substance (at 100 μg/ml) in comparison to the activity of heparin in the same concentration in the same experiment, was calculated: [formula] Blood Coagulation Inhibition
# thrombin = target: T1, thrombin (Homo sapiens, UniProt P00734); assay type: biochemical
# T1 construct: purchased Roche Basle (Thrombin Reagent)
# Experimental: (§1) Inhibition of thrombin or Factor Xa in the Chromogen Substrate Test (Teien et al., Thrombosis Research 10, 399-410 (1977)): The determination was effected in a Cobas-Bio centrifugal automatic spectrophotometer. The buffer solution used consisted of 50 mM Tris buffer, 180 mM NaCl, 7.5 mM EDTA Na2, 1% PEG 6000 and 0.02% Tween 80, pH 8.4. The test solution consisted of 50 μl of buffer, 30 μl of antithombin III (1U/ml, Kabi Diagnostica) and 20 μl of plasma which contained various concentrations of test compounds. 30 μl of sample solution and 20 μl of water with 180 μl of thrombin (1U/ml, Thrombin Reagent Roche Basle) were added to the test cuvette in the automatic analyzer. After incubation at 37° C. for 240 seconds, 60 μl of S-2238 (H-D-Phe-Pip-Arg-NH.pNA, Kabi Diagnostica, Mondal, Sweden, 0.75 mM in water) and 20 μl of water were added. The liberation of pNA (p-nitro-aniline) was followed during 60 seconds at 405 nm in 10 second intervals in comparison to water as the blank.
# Factor Xa = target: T2, Factor Xa (Bos taurus, UniProt P00743); assay: Blood coagulation inhibition: inhibition of Factor Xa in the Chromogen Substrate Test; assay type: biochemical
# T2 sequence (P00743 41-180 limits assumed): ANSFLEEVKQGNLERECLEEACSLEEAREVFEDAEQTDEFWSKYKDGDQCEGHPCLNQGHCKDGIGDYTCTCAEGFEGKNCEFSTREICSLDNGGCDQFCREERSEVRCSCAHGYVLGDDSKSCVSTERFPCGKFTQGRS
# Experimental: as §1
# The inhibition of Factor Xa was measured in the same manner using a solution of Factor Xa (2.8 nkat/ml and 2 mM S-2222 (Bz-CO-Ile-Glu-Arg-NH.pNA, Kabi Diagnostica) in water in place of thrombin and, respectively, S-2238.
# [1] = with antithrombin III and plasma, S-2238 substrate, 37° C., pH 8.4
# [2] = with antithrombin III and plasma, S-2222 substrate
# [3] = with antithrombin III and plasma, S-2238 substrate, 37° C., pH 8.4; read-out: Anticoagulative Activity IC50 Thrombin
# [4] = with antithrombin III and plasma, S-2222 substrate; read-out: Anticoagulative Activity IC50 Factor Xa
# [5] = read-out: Anticoagulative Activity IC50 Thrombin; with antithrombin III and plasma, S-2238 substrate, 37° C., pH 8.4
# [6] = read-out: Anticoagulative Activity IC50 Factor Xa; with antithrombin III and plasma, S-2222 substrate
Compound,Antiproliferative Activity ri (relative inhibitory activity versus heparin) (rat smooth muscle cells),Anticoagulative Activity IC50 Thrombin (thrombin; [1]) [µg/mL],Anticoagulative Activity IC50 Factor Xa (Factor Xa; [2]) [µg/mL],IC50 (thrombin; [3]) [µM],IC50 (Factor Xa; [4]) [µM],IC50 (thrombin; [5]) [µM],IC50 (Factor Xa; [6]) [µM]
Heparin [reference compound],1.0,1.9,2.7,,,,
"O=C(N[C@H]1[C@@H](OCc2ccccc2)O[C@H](CNC(=O)[C@H](OS(=O)(=O)O)[C@@H](OS(=O)(=O)O)[C@H](OS(=O)(=O)O)[C@@H](COS(=O)(=O)O)OS(=O)(=O)O)[C@@H](OS(=O)(=O)O)[C@@H]1OS(=O)(=O)O)c1ccc(/C=C\c2ccc(C(=O)N[C@H]3[C@@H](OCc4ccccc4)O[C@H](CNC(=O)[C@H](OS(=O)(=O)O)[C@@H](OS(=O)(=O)O)[C@H](OS(=O)(=O)O)[C@@H](COS(=O)(=O)O)OS(=O)(=O)O)[C@@H](OS(=O)(=O)O)[C@@H]3OS(=O)(=O)O)cc2)cc1 [Example 23, (Z)-stilbene-4,4'-dicarboxylic acid bis-[[benzyl 2,6-didesoxy-6-(2,3,4,5,6-penta-O-sulfo-D-gluconoylamino)-3,4-di-O-sulfo-α-D-glucopyranosid-2-yl]-amide] tetradecasodium salt]",1.8,,,> 445,> 445,,
"O=C(NC[C@H]1O[C@H](OCc2ccccc2)[C@H](NC(=O)c2ccc(NC[C@H](OS(=O)(=O)O)[C@@H](OS(=O)(=O)O)[C@H](OS(=O)(=O)O)[C@@H](COS(=O)(=O)O)OS(=O)(=O)O)c([N+](=O)[O-])c2)[C@@H](OS(=O)(=O)O)[C@@H]1OS(=O)(=O)O)c1ccc(/C=C/c2ccc(C(=O)NC[C@H]3O[C@H](OCc4ccccc4)[C@H](NC(=O)c4ccc(NC[C@H](OS(=O)(=O)O)[C@@H](OS(=O)(=O)O)[C@H](OS(=O)(=O)O)[C@@H](COS(=O)(=O)O)OS(=O)(=O)O)c([N+](=O)[O-])c4)[C@@H](OS(=O)(=O)O)[C@@H]3OS(=O)(=O)O)cc2Cl)cc1 [Example 32, (E)-2-Chloro-stilbene-4,4'-dicarboxylic acid bis-[[benzyl 2,6-didesoxy-2-[4-(2,3,4,5,6-penta-O-sulfo-D-glucit-1-ylamino)-3-nitro-benzoylamino]-3,4-di-O-sulfo-a-D-glucopyranosid-6-yl]-amide] tetradecasodium salt]",1.4,,,,,> 387,> 387
"CN(C[C@H](OS(=O)(=O)O)[C@@H](OS(=O)(=O)O)[C@H](OS(=O)(=O)O)[C@@H](COS(=O)(=O)O)OS(=O)(=O)O)c1ccc(C(=O)N[C@H]2[C@@H](OCc3ccccc3)O[C@H](CNC(=O)c3cccc(C(=O)NC[C@H]4O[C@H](OCc5ccccc5)[C@H](NC(=O)c5ccc(N(C)C[C@H](OS(=O)(=O)O)[C@@H](OS(=O)(=O)O)[C@H](OS(=O)(=O)O)[C@@H](COS(=O)(=O)O)OS(=O)(=O)O)c([N+](=O)[O-])c5)[C@@H](OS(=O)(=O)O)[C@@H]4OS(=O)(=O)O)c3)[C@@H](OS(=O)(=O)O)[C@@H]2OS(=O)(=O)O)cc1[N+](=O)[O-] [Example 35, Isophthalic acid bis-[[benzyl 2,6-didesoxy-2-[4-[methyl (2,3,4,5,6-penta-O-sulfo-D-glucit-1-yl)-amino]-3-nitro-benzoylamino]-3,4-di-O-sulfo-a-D-glucopyranosid-6-yl]-amide] tetradecasodium salt]",2.5,,,,,> 404,> 404
"O=C(NC[C@H]1O[C@H](OCc2ccccc2)[C@H](NC(=O)c2ccc(NC[C@H](OS(=O)(=O)O)[C@@H](OS(=O)(=O)O)[C@H](OS(=O)(=O)O)[C@@H](COS(=O)(=O)O)OS(=O)(=O)O)c([N+](=O)[O-])c2)[C@@H](OS(=O)(=O)O)[C@@H]1OS(=O)(=O)O)c1cc(C(=O)NC[C@H]2O[C@H](OCc3ccccc3)[C@H](NC(=O)c3ccc(NC[C@H](OS(=O)(=O)O)[C@@H](OS(=O)(=O)O)[C@H](OS(=O)(=O)O)[C@@H](COS(=O)(=O)O)OS(=O)(=O)O)c([N+](=O)[O-])c3)[C@@H](OS(=O)(=O)O)[C@@H]2OS(=O)(=O)O)cc(C(=O)NC[C@H]2O[C@H](OCc3ccccc3)[C@H](NC(=O)c3ccc(NC[C@H](OS(=O)(=O)O)[C@@H](OS(=O)(=O)O)[C@H](OS(=O)(=O)O)[C@@H](COS(=O)(=O)O)OS(=O)(=O)O)c([N+](=O)[O-])c3)[C@@H](OS(=O)(=O)O)[C@@H]2OS(=O)(=O)O)c1 [Example 30, Benzene-1,3,5-tricarboxylic acid tris-[[benzyl 2,6-didesoxy-2-[4-(2,3,4,5,6-penta-O-sulfo-D-glucit-1-ylamino)-3-nitro-benzoylamino]-3,4-di-O-sulfo-a-D-glucopyranosid-6-yl]-amide] henicosasodium salt]",1.6,,,,,> 276,> 276
"CC(=O)Nc1cc(C(=O)N[C@H]2[C@@H](OCc3ccccc3)O[C@H](CNC(=O)c3cccc(C(=O)NC[C@H]4O[C@H](OCc5ccccc5)[C@H](NC(=O)c5ccc(N(CCOS(=O)(=O)O)C[C@H](OS(=O)(=O)O)[C@@H](OS(=O)(=O)O)[C@H](OS(=O)(=O)O)[C@@H](COS(=O)(=O)O)OS(=O)(=O)O)c(NC(C)=O)c5)[C@@H](OS(=O)(=O)O)[C@@H]4OS(=O)(=O)O)c3)[C@@H](OS(=O)(=O)O)[C@@H]2OS(=O)(=O)O)ccc1N(CCOS(=O)(=O)O)C[C@H](OS(=O)(=O)O)[C@@H](OS(=O)(=O)O)[C@H](OS(=O)(=O)O)[C@@H](COS(=O)(=O)O)OS(=O)(=O)O [Example 38, Isophthalic acid bis-[[benzyl 2-[3-acetylamino-4-[(2,3,4,5,6-penta-O-sulfo-D-glucit-1-yl)-(2-sulfonyloxy-ethyl)-amino]-benzoylamino]-2,6-didesoxy-3,4-di-O-sulfo-a-D-glucopyranosid-6-yl]-amide] hexadecasodium salt]",1.8,,,,,> 368,> 368
"Biphenyl-4,4'-dicarboxylic acid bis-[[(Z)-benzyl 2,6-didesoxy-3,4-di-O-sulfo-6-(3-desoxy-2,4,5,6-tetra-0-sulfo-D-erythro-hex-2-enonoylamino)-a-D-glucopyranosid-2-yl]-amide] dodecasodium salt [Example 15]",1.8,> 1000,> 1000,,,,
"O=C(NC[C@H]1O[C@H](OCc2ccccc2)[C@H](NC(=O)c2ccc(N(CCOS(=O)(=O)O)C[C@H](OS(=O)(=O)O)[C@@H](OS(=O)(=O)O)[C@H](OS(=O)(=O)O)[C@@H](COS(=O)(=O)O)OS(=O)(=O)O)c([N+](=O)[O-])c2)[C@@H](OS(=O)(=O)O)[C@@H]1OS(=O)(=O)O)c1cccc(C(=O)NC[C@H]2O[C@H](OCc3ccccc3)[C@H](NC(=O)c3ccc(N(CCOS(=O)(=O)O)C[C@H](OS(=O)(=O)O)[C@@H](OS(=O)(=O)O)[C@H](OS(=O)(=O)O)[C@@H](COS(=O)(=O)O)OS(=O)(=O)O)c([N+](=O)[O-])c3)[C@@H](OS(=O)(=O)O)[C@@H]2OS(=O)(=O)O)c1 [Example 36, Isophthalic acid bis-[[benzyl 2,6-didesoxy-2-[4-[(2-hydroxysulfonyloxy-ethyl)-2,3,4,5,6-penta-O-sulfo-D-glucit-1-yl)-amino]-3-nitro-benzoylamino]-3,4-di-O-sulfo-a-D-glucopyranosid-6-yl]-amide] hexadecasodium salt]",2.1,,,,,> 371,> 371
"O=C(CO[C@@H]1[C@@H](NC(=O)c2ccc(-c3ccc(C(=O)N[C@H]4[C@@H](OCc5ccccc5)O[C@@H]5CO[C@@H](c6ccccc6)O[C@H]5[C@@H]4OCC(=O)N[C@H]4[C@@H](OCc5ccccc5)O[C@H](COS(=O)(=O)O)[C@@H](OS(=O)(=O)O)[C@@H]4OS(=O)(=O)O)cc3)cc2)[C@@H](OCc2ccccc2)O[C@@H]2CO[C@@H](c3ccccc3)O[C@@H]12)N[C@H]1[C@@H](OCc2ccccc2)O[C@H](COS(=O)(=O)O)[C@@H](OS(=O)(=O)O)[C@@H]1OS(=O)(=O)O [Example 11, (Biphenyl-4,4'-dicarboxylic acid) bis-[[benzyl 3-O-[(benzyl 2-desoxy-2,3,4-tri-O-sulfo-a-D-glucopyranoside)-2-yl-carbamoylmethyl]-4,6-(R)-O-benzylidene-2-desoxy-a-D-glucopyranosid-2-yl]-amide] hexasodium salt]",1.7,,,> 495,> 495,,

# From US5767268A, “Sulfuric acid esters of amino sugars” (Hoffmann-La Roche Inc., priority 1995, dated 1998)
